The text below walks through data of publication PMC11123956, “Nobiletin Stimulates Adrenal Hormones and Modulates the Circadian Clock in Mice” (Nutrients, 2024).

Assay [1] concerns PER2::LUC rhythm in peripheral tissues (kidney, liver, submandibular gland). Put plainly: In vivo bioluminescence imaging of peripheral PER2::LUC rhythm. Also noted: species or system mice. As to conditions: 100 mg/kg i.p., 3 days. The method, then: (§1) Male C57BL/6J mice (7 weeks old) were purchased from Charles River Japan (Kanagawa, Japan) and used for the serum hormone assay and RT-PCR. Male ICR mice were purchased from Tokyo Laboratory Animals Science Co., Ltd. (Tokyo, Japan), and female PERIOD2::LUCIFERASE (PER2::LUC) knock-in mice (ICR background) bred at Waseda University were used for blood glucose measurements and in vivo imaging assays, respectively. The mice were all housed under conditions of controlled temperature (23 °C ± 3 °C), humidity (50% ± 20%), and lighting (lights on from 07:00 to 19:00 at Taisho Pharmaceutical Co., Ltd. or from 08:00 to 20:00 at Waseda University). In the 24 h cycle, Zeitgeber time 0 (ZT0) was designated as the time when the lights were turned on, and ZT12 was designated as the time when the lights were turned off. All the mice were given access to food and tap water ad libitum, and nobiletin (10–100 mg/kg; purchased from FUJIFILM Wako Pure Chemical Corporation, Osaka, Japan) was administered by intraperitoneal (i.p.) injection in the vehicle (10 mL/kg body weight) containing 0.5% carboxymethyl cellulose (CMC). Rolipram (PDE4 inhibitor, FUJIFILM Wako Pure Chemical Corporation) and SR1078 (RORα/γ agonist, FUJIFILM Wako Pure Chemical Corporation) were also used for the experiment at 10 mg/kg in 0.5% CMC [12]. Mice were euthanized by rapid decapitation for whole blood samples.
An in vivo imaging system (IVIS) (Caliper Life Sciences, Hopkinton, MA, USA) was used to monitor the PER2::LUC activity rhythm waveform in the peripheral tissues (kidney, liver, and submandibular gland) of the mice. A previously developed protocol and analytical method to monitor bioluminescence oscillations in peripheral tissues was used. Briefly, the mice were anesthetized with isoflurane (FUJIFILM Wako Pure Chemical Corporation, Osaka, Japan) and enriched with oxygen. Mice were anesthetized and injected subcutaneously on the back and near the neck with D-luciferin potassium salt (FUJIFILM Wako Pure Chemical Corporation, Osaka, Japan) at a dose of 15 mg/kg body weight. Images were taken using an IVIS, in the dorsal-up position for the kidney 8 min after injection and in the ventral-up position for the liver and the submandibular gland 10 min after injection. Images were obtained six times/day at 4 h intervals (ZT3, 7, 11, 15, 19, and 23) (Figure 1 and Figure 2). The mice were returned to their home cages after each imaging procedure and quickly recovered from isoflurane anesthesia. Bioluminescence emitted from the kidneys and liver was calculated automatically using Living Image 3.2 software (Caliper Life Sciences). The average photon/min value for the six time points from each day was designated as 100%, and the bioluminescence rhythm for the entire day was expressed as a percentage of each set of six time points for individual organs. The peak phase and amplitude of the normalized data were determined using a single cosinor procedure program (Acro.exe version 3.5 [14]).
Figure 1 Experimental protocol for in vivo imaging. PER2::LUC female mice were treated with control (0.5% CMC) or nobiletin (100 mg/kg) at the same time points (ZT0, 4, 8, 12, 16, or 20) for three consecutive days, and then measured for peripheral clocks by in vivo whole-body imaging to examine phase–response curves (n = 4–5 in each).
Figure 2 Time-of-day dependence of peripheral PER2::LUC changes in nobiletin injection. (A) Representative photo images of in vivo PER2::LUC bioluminescence in the kidney, liver, and submandibular gland (sab gla). (B) Waveforms of PER2::LUC rhythm in each tissue at each treatment time. (C,D) Phase–response curves or amplitude–response curves of nobiletin injections in peripheral PER2::LUC rhythm. […]

The test system of the next assay is Bmal1 mRNA. Put plainly: Real-time RT-PCR of Bmal1 mRNA in peripheral tissues. Format: in vivo, mice. The settings on record: after a single treatment. The procedure: as §1
Figure 3 Nobiletin stimulated adrenaline and corticosterone secretion, and induced acute clock gene expression changes. (A–C) Mice received intraperitoneal injections of control (0.5% CMC) or nobiletin (10 or 100 mg/kg) at ZT3. (A) Serum corticosterone at 1 h after treatment (n = 6 in each). $$$ p < 0.001 by Tukey’s multiple comparisons test. (B) Serum corticosterone and adrenaline at 1, 2, and 4 h after treatment (n = 4 in each). # p < 0.05 vs. control at each time point by Mann–Whitney test; ** p < 0.01 vs. control at each time point by Student’s t-test. (C) Blood glucose changes after treatment (n = 9 in each). Statistics of 2-way repeated ANOVA are indicated on the graph. […]

In the case of `COc1ccc(-c2cc(=O)c3c(OC)c(OC)c(OC)c(OC)c3o2)cc1OC` [nobiletin], the “amplitude of PER2::LUC rhythm vs control” value in assay [1] (kidney, liver and submandibular gland (all three tissues), treatment at ZT16) was “increased”; in assay [1] (kidney, treatment at ZT0 or 4), “decreased”; in assay [1] (liver, treatment at ZT12), “decreased”. Besides, the “phase of PER2::LUC rhythm vs control” value is “phase advancement” in assay [1] (kidney, administration at ZT4); “phase delay” in assay [1] (kidney, treatment at ZT20); “phase-advanced” in assay [1] (liver, treatment at ZT12); “phase advancement” in assay [1] (submandibular gland, administration at ZT4). Besides, the Bmal1 expression entry in the assay on Bmal1 mRNA is given as “did not change significantly”.
